Results: US20180319762A1, “5-deoxy-irilin B Having Angiotensin-I-converting enzyme Inhibition Activity derived from Salicornia SPP. and Composition Containing the Same” (PHYTO CORPORATION, priority 2015, published 2018)

Columns and labels:
[1] = Solubility (physical and chemical properties of Compound A); format: physicochemical
[2] = molecular target: T1, angiotensin-I-converting enzyme (ACE) (Oryctolagus cuniculus, UniProt P12822); experiment: ACE (Angiotensin I-Converting Enzyme) inhibition activity, Hip-His-Leu substrate, absorbance at 228 nm; format: biochemical, rabbit
T1 construct: tissue Sigma; host or cells: rabbit lung (acetone powder, borate buffer extract supernatant)
T1 sequence (P12822 34-1310): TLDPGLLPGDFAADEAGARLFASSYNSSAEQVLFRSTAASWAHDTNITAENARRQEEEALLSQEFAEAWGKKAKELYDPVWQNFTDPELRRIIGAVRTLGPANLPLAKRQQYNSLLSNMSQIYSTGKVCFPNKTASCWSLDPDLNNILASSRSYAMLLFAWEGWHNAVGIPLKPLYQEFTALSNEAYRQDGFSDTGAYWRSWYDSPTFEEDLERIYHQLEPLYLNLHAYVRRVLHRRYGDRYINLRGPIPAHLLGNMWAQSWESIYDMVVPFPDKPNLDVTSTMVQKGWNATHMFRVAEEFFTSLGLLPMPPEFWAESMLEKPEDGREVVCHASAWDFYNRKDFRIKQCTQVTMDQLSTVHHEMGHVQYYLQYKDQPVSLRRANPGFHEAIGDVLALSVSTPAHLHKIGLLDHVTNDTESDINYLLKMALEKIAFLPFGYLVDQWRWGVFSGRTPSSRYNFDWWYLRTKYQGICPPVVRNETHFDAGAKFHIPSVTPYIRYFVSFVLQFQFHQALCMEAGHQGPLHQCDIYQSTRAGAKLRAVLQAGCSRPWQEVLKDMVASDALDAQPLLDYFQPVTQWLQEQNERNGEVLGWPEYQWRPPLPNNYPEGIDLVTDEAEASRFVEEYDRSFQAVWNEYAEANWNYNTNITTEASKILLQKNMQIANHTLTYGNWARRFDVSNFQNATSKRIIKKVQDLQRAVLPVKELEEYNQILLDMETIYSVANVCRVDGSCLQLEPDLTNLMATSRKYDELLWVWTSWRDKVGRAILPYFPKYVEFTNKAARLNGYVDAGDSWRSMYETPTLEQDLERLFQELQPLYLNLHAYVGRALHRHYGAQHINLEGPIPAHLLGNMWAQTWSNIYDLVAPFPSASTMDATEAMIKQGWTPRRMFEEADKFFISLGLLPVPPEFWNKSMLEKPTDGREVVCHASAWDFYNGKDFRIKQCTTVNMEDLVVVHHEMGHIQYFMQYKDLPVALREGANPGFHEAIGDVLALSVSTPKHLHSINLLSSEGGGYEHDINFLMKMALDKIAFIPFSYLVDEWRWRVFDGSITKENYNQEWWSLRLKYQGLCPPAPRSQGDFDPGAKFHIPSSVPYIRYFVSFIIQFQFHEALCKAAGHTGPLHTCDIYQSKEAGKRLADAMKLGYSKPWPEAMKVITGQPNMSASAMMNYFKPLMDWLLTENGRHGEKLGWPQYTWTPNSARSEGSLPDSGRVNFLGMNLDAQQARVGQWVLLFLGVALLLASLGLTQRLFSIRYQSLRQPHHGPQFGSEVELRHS
Description: As shown in the results of Table 8, the hydrolyzed Salicornia salty sauces had very high functional polyphenol and flavonoid contents compared to the non-hydrolyzed salty sauce. Thus, as an indicator for antihypertensive activity, angiotensin-I-converting enzyme (ACE) inhibition activity was evaluated. As the test sample, each salty sauce, adjusted to a salt content of 14%, was added at a concentration of 1 to 5 μL/mL to the reaction solution, and then measured.
Angiotensin-II, produced by ACE, promotes an increase in blood pressure and secretion of antidiuretic hormone aldosterone, and suppresses the emission of water and sodium to thus increase blood circulation, thus causing hypertension. […] Specifically, 1 g of a rabbit lung acetone powder (Sigma Col) in 50 μL of the sample was mixed with 25 μL (2.5 unit) of an ACE supernatant dissolved in a 0.1 M sodium borate buffer containing 10 mL of 0.3 M NaCl, 50 μL of a 0.1 M sodium borate buffer (pH 8.3) containing 0.3 M NaCl, and 25 μL of a sample solution at various concentrations (0.25, 0.5 and 1.0 mg/mL), and then preincubated at 37° C. for 10 min. Further, 50 μL of a Hip-His-Leu substrate solution was added, and the resulting mixture was allowed to react at 37° C. for 30 min, after which the reaction was stopped by the addition of 100 μL of 1 N HCl. 1 mL of ethyl acetate was added, and the resulting reaction mixture was agitated in a vortex for 1 min and centrifuged at 3,000 g for 15 min, after which 0.8 mL of the separated ethyl acetate supernatant (extract) was recovered. The supernatant was warmed in a hood and thus completely volatilized, and was then dissolved in 1 mL of a sodium borate buffer under the same conditions, after which absorbance at 228 nm was measured and ACE inhibition activity was calculated.
During purification, the organic solvent fractions (at concentrations of 10, 25, 50 μg/mL) were measured for ACE inhibition activity in the same manner as in Example 3-2.

| SMILES | Solubility ([1]; in methanol, ethanol, ethyl acetate, and chloroform) | Solubility ([1]; in water) | IC50 [2] | inhibition at 10 µg/mL ([2]; at a concentration of 10 μg/mL) | ACE inhibition activity, rank among compared samples/fractions ([2]; compared with the other sauces or with the other fractions of the same purification step) |
| --- | --- | --- | --- | --- | --- |
| COc1cc2c(=O)c(-c3ccccc3O)coc2cc1O [EDS-LH-7b, 7-hydroxy-3-(2′-hydroxyphenyl)-6-methoxy-4H-1-benzopyran-4-one] | Soluble | insoluble | 15.8 µM | ≥ 95% | the greatest |
| O=c1cc(-c2ccc(O)c(O)c2)oc2cc(O)cc(O)c12 [Luteolin, reference compound] | – | – | 93.3 µM | – | – |
